Measurements taken from patent US20200038399A1, “FORMULATIONS, METHODS, KIT, AND DOSAGE FORMS FOR TREATING BACTERIAL INFECTION” (Motif BioSciences Inc., priority 2016, published 2020).
Several values for one entry are separate records, joined by “and”; a condition that tells them apart may be missing. Identical values can stand only once. Counter-ions that a name gives are not always drawn.

Experiments:
[1] = test system: Pneumocystis jirovecii; assay: in vivo Pneumocystis pneumonia model, corticosteroid-treated rats; settings: 50 mg/kg/d oral, once a day for 10 days
Method: Compound solutions were prepared just before use.
The drugs were given once a day for 10 consecutive days. The final concentration of DMSO in diluted drug solutions was between 1.5 and 15%. Control animals were dosed with sterile water with 15% of DMSO. At the end of the experiment, therapeutic efficacy was assessed by counting P. jirovecii in lung homogenates and comparing the counts with those of the untreated controls. Twenty-four hours after the end of the treatment, animals were sacrificed and the lung homogenized in a Stomacher-400 blender as previously described (European Concerted Action on Pneumocystis Research. Parasitology Today 12: 245-9, 1996, the entire disclosure of which is herein incorporated by reference). Parasite quantitation was performed on air-dried smears stained with toluidine blue 0 (cystic forms) or RAL-555 stains (vegetative, precystic and cystic forms).

[2] = test system: S. aureus 101; assay: MIC determination; type: cell-based, Staphylococcus aureus; settings: Staphylococcus aureus, 101, 18 h; read-out: Minimum inhibitory concentrations (MIC)
Procedure, shortened: (§1)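 Broth microdilution MICs: H. influenzae in HTM (Mueller-Hinton broth, yeast extract, NAD, hematin), M. catarrhalis in Brain Heart Infusion, others in cation-adjusted Mueller-Hinton broth.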

[3] = test system: S. pneumoniae 1/1; assay: MIC determination; type: cell-based, Streptococcus pneumoniae; settings: Streptococcus pneumoniae; S. pneumoniae 1/1; 18 hours at 37° C., 5% CO2; read-out: Minimum inhibitory concentrations (MIC)
[4] = test system: Haemophilus influenzae ATCC 49766; assay: MIC determination; type: cell-based; settings: Haemophilus influenzae, ATCC49766, 18 h, read-out: Minimum inhibitory concentrations (MIC)
Procedure, shortened: as §1

[5] = test system: Klebsiella pneumoniae ATCC 33495; assay: MIC determination; type: cell-based; settings: Klebsiella pneumoniae, ATCC33495; K. pneumonia 33495; 18 hours at 37° C.; read-out: Minimum inhibitory concentrations (MIC)
Procedure, shortened: as §1

[6] = test system: Moraxella catarrhalis RA 21; assay: MIC determination; type: cell-based; settings: Moraxella catarrhalis, RA21; M. catarrhalis RA 21; 18 hours at 37° C., 5% CO2; read-out: Minimum inhibitory concentrations (MIC)
Procedure, shortened: as §1

[7] = test system: Staphylococcus aureus ATCC 25923; assay: MIC determination; type: cell-based; settings: Staphylococcus aureus, ATCC25923; S. aureus 25923; 18 hours at 37° C.; read-out: Minimum inhibitory concentrations (MIC)
Procedure, shortened: as §1

[8] = test system: Streptococcus pneumoniae ATCC 49619; assay: MIC determination; type: cell-based; settings: Streptococcus pneumoniae, ATCC49619; S. pneumoniae 49619; 18 hours at 37° C., 5% CO2; read-out: Minimum inhibitory concentrations (MIC)
[9] = test system: Haemophilus influenzae ATCC 49766; assay: checkerboard synergy assay with iclaprim; type: cell-based; settings: antibiotic in combination with iclaprim; H. influenzae 49766
[10] = test system: Klebsiella pneumoniae ATCC 33495; assay: checkerboard synergy assay with iclaprim; type: cell-based; settings: antibiotic in combination with iclaprim; K. pneumoniae 33495
[11] = test system: Moraxella catarrhalis RA 21; assay: checkerboard synergy assay with iclaprim; type: cell-based; settings: antibiotic in combination with iclaprim; M. catarrhalis RA 21
[12] = test system: Staphylococcus aureus ATCC 25923; assay: checkerboard synergy assay with iclaprim; type: cell-based; settings: antibiotic in combination with iclaprim; S. aureus 25923
[13] = test system: Streptococcus pneumoniae ATCC 49619; assay: checkerboard synergy assay with iclaprim; type: cell-based; settings: antibiotic in combination with iclaprim; S. pneumoniae 49619
[14] = test system: S. aureus 101; assay: checkerboard synergy assay with iclaprim; type: cell-based, Staphylococcus aureus; settings: antibiotic in combination with iclaprim
[15] = test system: S. pneumoniae 1/1; assay: checkerboard synergy assay with iclaprim; type: cell-based, Streptococcus pneumoniae; settings: antibiotic in combination with iclaprim
[16] = in vivo; cited from earlier work
[17] = test system: Staphylococcus aureus, Streptococcus pneumoniae, Haemophilus influenzae, Moraxella catarrhalis and Klebsiella pneumoniae; assay: checkerboard synergy assay with iclaprim, strains pooled; type: cell-based; settings: for synergistic potential with iclaprim: checkerboard experiments, all strains
Method: The synergistic potential of iclaprim against Gram-positive and Gram-negative bacteria was determined using the checkerboard assay as described in Eliopoulos GM and Moellering, Jr. RC (1991), Antimicrobial combinations, pp. 432-492, in V. Lorian (ed.), Antibiotics in laboratory medicine, 3rd Ed., The Williams & Wilkins Co., Baltimore, the entire disclosure of which is herein incorporated by reference, allowing multiple test concentrations of iclaprim to be assayed in the presence of various concentrations of the other antibiotic in microtiter plates. The same growth media and conditions were used as described in 3.2 below.
Two different dilutions were used for iclaprim depending on the MIC determined for the bacterium. […] Iclaprim and the other antibiotic being tested were also dispensed alone in the last row and in the last column, respectively, as controls.
The Fractional Inhibitory Concentrations (FIC) for each added agent were calculated and used to determine the sum of FIC (ΣFIC) indicative of the synergistic potential of a given combination as described in Veyssier P. (1999), Inhibiteurs de la dihydrofolate reductase, nitrohétérocycles (furanes) et 8-hydroxyquinoleines, pp. 995-1027, in A. Bryskier (ed.), Antibiotiques agents antibatériens et antifongiques, 1st Ed., Ellipses Edition Marketing SA, Paris, the entire disclosure of which is herein incorporated by reference. Synergy was defined whereby the ΣFIC was <0.5, indifference (no synergy nor antagonism) whereby ΣFIC was ≥0.5 but ≤4, and antagonism whereby ΣFIC was >4. Additivity as a special form of indifference was defined whereby the ΣFIC was ≥0.5 but <1, for example as described in Stevens, D L et al. (1998), In vitro antimicrobial effects of various combinations of penicillin and clindamycin against four strains of Streptococcus pyogenes, J. Antimicrob. Chemother. 42: 1266-1268, the entire disclosure of which is herein incorporated by reference.

[18] = water at 20° C.; cited from earlier work
[19] = cited from earlier work
[20] = 1% solution in water; cited from earlier work
[21] = test system: Gram-positive bacteria; settings: cited from earlier work
[22] = in vivo; cited from earlier work; remark: listed apart in the source
[23] = biological target: hERG channel (Homo sapiens, UniProt Q12809); settings: cited from earlier work
Chain of hERG channel (Q12809 whole entry): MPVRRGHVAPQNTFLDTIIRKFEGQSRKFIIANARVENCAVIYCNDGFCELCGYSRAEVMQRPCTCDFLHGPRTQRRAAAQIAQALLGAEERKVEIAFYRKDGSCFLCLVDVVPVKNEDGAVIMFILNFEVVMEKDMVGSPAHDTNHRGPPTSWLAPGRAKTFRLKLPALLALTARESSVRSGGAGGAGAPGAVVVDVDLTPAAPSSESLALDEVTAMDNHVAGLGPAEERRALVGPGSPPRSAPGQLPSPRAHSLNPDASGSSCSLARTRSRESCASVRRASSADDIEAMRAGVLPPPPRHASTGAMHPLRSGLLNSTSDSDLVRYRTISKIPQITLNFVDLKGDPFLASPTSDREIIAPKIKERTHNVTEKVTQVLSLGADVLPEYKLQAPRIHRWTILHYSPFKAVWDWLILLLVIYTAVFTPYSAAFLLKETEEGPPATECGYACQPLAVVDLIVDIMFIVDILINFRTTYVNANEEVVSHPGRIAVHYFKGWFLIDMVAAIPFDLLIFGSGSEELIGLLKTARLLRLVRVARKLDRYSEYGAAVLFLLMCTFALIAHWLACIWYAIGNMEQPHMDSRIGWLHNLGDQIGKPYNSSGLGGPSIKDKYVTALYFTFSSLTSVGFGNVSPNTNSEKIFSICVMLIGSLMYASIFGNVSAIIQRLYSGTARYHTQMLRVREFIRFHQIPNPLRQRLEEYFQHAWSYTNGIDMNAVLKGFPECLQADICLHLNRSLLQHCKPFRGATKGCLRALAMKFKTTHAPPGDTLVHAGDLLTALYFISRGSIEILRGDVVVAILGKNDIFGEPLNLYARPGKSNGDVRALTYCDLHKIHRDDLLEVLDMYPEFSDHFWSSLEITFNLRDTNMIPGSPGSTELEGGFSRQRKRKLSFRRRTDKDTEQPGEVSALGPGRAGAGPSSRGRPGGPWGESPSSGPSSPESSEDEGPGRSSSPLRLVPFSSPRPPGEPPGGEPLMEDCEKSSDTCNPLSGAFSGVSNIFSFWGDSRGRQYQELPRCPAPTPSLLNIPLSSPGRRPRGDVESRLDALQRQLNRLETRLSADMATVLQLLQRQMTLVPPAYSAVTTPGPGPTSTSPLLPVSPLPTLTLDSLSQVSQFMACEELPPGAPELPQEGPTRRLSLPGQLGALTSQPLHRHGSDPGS

[24] = rat lung, single rat, listed as TMP, 50 mg/kg/day
[25] = single rat, listed as TMP, 50 mg/kg/day

| SMILES | MIC [2] [µg/mL] | MIC [3] [µg/mL] | MIC [4] [µg/mL] | MIC [5] [µg/mL] | MIC [6] [µg/mL] | MIC [7] [µg/mL] | MIC [8] [µg/mL] | Con (Conclusion) [9] | Σ FIC [9] | Con (Conclusion) [10] | Σ FIC [10] | Con (Conclusion) [11] | Σ FIC [11] | Σ FIC [12] | Σ FIC [13] | Σ FIC [14] | Σ FIC [15] | synergistic potential with iclaprim [17] | further results |
| --- | --- | --- | --- | --- | --- | --- | --- | --- | --- | --- | --- | --- | --- | --- | --- | --- | --- | --- | --- |
| COc1cc(Cc2cnc(N)nc2N)cc(OC)c1OC [Trimethoprim] | > 128 | 128 | 0.5 | 8 | 64 | 1 | 8 | Ind (Indifference (Ind)) | 1.00-1.25 | Ind (Indifference (Ind)) | 1.13-1.50 | Ad (Additivity (Ad)) | 0.75-1.13 | 1.00-1.25 | 1.00-1.25 | 1.01-1.50 | 0.56-1.03 |  | Mean % + SD (inhibition of cysts, TBO) ([1]; group mean): 64.2 ± 30.7%; Mean % + SD (inhibition of total parasites, Giemsa) ([1]; group mean): 78.7 ± 22.6%; Total cysts (TBO) [1, 24]: 7.16.10^+7 and 9.36.10^+6 and 1.60.10^+8 and 1.32.10^+7; Total parasites (Giemsa) [1, 24]: 1.06.10^+9 and 5.81.10^+7 and 6.76.10^+8 and 6.38.10^+7; % of inhibition vs Control (total parasites, Giemsa) [1, 25]: 51.3% and 97.3% and 69.0% and 97.1%; % of inhibition vs control (cysts, TBO) [1, 25]: 40.6% and 92.2% and 34.9% and 89.0%; t½ (plasma half-life) [16]: about 10.1 hours |
| Cc1cc(NS(=O)(=O)c2ccc(N)cc2)no1 [Sulfamethoxazole, N1-(5-methyl-3-isoxazolyl)sulfanilamide] | > 128 | > 128 | 128 | > 128 | > 128 | > 128 | > 128 | Syn (Synergy (Syn)) |  | Ad (Additivity (Ad)) |  | Syn (Synergy (Syn)) |  |  |  |  |  | highly synergistic |  |
| COc1cc(Cc2cnc(N)nc2N)c2c(c1OC)OC(C1CC1)C=C2 (stereo not drawn) [iclaprim mesylate] |  |  |  |  |  |  |  |  |  |  |  |  |  |  |  |  |  |  | solubility in water [18]: approximately 10 mg/mL; pKa [19]: 7.2; pH value [20]: 4.2 |
| Nc1ccc(S(=O)(=O)Nc2ncccn2)cc1 [Sulfadiazine] | > 128 | > 128 | > 128 | > 128 | > 128 | > 128 | > 128 | Syn (Synergy (Syn)) | 0.16-0.53 | Syn (Synergy (Syn)) | 0.27-1.50 | Syn (Synergy (Syn)) | 0.09-0.50 | 0.06-0.53 | 0.13-0.53 | 0.75-1.13 | 0.28-0.56 | highly synergistic | ΣFIC, range over strains ([17]; in combination with iclaprim, all the strains tested): 0.06-1.50 |
| COc1cc(Cc2cnc(N)nc2N)c2c(c1OC)O[C@H](C1CC1)C=C2 [R-enantiomer, 5-[(2R)-2-cyclopropyl-7,8-dimethoxy-2Hchromen-5-ylmethyl] pyrimidine-2,4-diamine] |  |  |  |  |  |  |  |  |  |  |  |  |  |  |  |  |  |  | minimum inhibitory concentration (MIC) compared with the S-enantiomer [21]: lower minimum inhibitory concentration (MIC) than the S-enantiomer; pharmacokinetic parameters compared with the S-enantiomer [22]: more favorable pharmacokinetic parameters; hERG channel activity compared with the S-enantiomer [23]: reduced hERG channel activity |
